# Laboratory results from patent publication US20250281569A1, “COMPOSITIONS AND METHODS FOR TREATING NEUROENDOCRINE TUMORS” (CAMURUS AB, priority 2021, published 2025).
# Assay: Non-clinical bridging studies of toxicity, PK and local tolerability
# Conditions: in vivo
# Text: In addition, the FluidCrystal® vehicle and the excipient glycerol dioleate have been evaluated.
structure (smiles),measurement,value
CCCCCCCC/C=C\CCCCCCCC(=O)OCC(CO)OC(=O)CCCCCCC/C=C\CCCCCCCC (stereo not shown) [glycerol dioleate],main effects observed in non-clinical studies,reversible injection-site reactions
